Activity calls are given as the source filed them. The rule behind the calls is not given here.

The values below come from ChEMBL document CHEMBL3045552, “In vivo screening of diarylimidazoles as anticonvulsant agents” (Med Chem Res, 2012).

The subject of series [1] is Mus musculus. The experiment in a line: Neurotoxicity in Mus musculus CF1 albino (mouse) assessed as minimal motor impairment at 100 mg/kg, ip measured at 0.5 hr by rotorod test. It is filed as toxicity, organism-based. Also on record: dose 100 mg/kg, route intraperitoneal. To be noted: in vivo. In general terms: The rotarod test checks motor coordination on a turning rod.

The subject of series [2] is Mus musculus. The experiment in a line: Neurotoxicity in Mus musculus CF1 albino (mouse) assessed as minimal motor impairment at 300 mg/kg, ip measured at 4 hr by rotorod test. The class given is toxicity, organism-based. Also on record: dose 300 mg/kg, route intraperitoneal. To be noted: in vivo.
Series [3] has as its system Mus musculus. The series is described as follows: Neurotoxicity in Mus musculus CF1 albino (mouse) assessed as minimal motor impairment at 30 mg/kg, ip measured at 4 hr by rotorod test. The class given is toxicity, organism-based. Also on record: dose 30 mg/kg, route intraperitoneal. To be noted: in vivo.
Series [4] in a line: Protective index, ratio of TD50 for neurotoxicity in ip dosed Mus musculus CF1 albino (mouse) to ED50 for protection against electrically-induced seizure by 6Hz psychomotor seizure test in ip dosed Mus musculus CF1 albino (mouse). To be noted: in vivo, read-out: Ratio TD50/ED50. The class given is toxicity, organism-based.
Series [5] has as its system Mus musculus. The experiment in a line: Anticonvulsant activity in Mus musculus CF1 albino (mouse) assessed as protection against subcutaneous metrazol-induced seizures at 100 mg/kg, ip measured at 4 hr. The class given is functional, organism-based. Also on record: dose 100 mg/kg.
Series [6] deals with Mus musculus. The series is described as follows: Anticonvulsant activity in Mus musculus CF1 albino (mouse) assessed as protection against subcutaneous metrazol-induced seizures at 300 mg/kg, ip measured at 4 hr. The class given is functional, organism-based. Also on record: dose 300 mg/kg.
In series [7] the test system is Mus musculus. The experiment in a line: Neurotoxicity in Mus musculus CF1 albino (mouse) assessed as minimal motor impairment at 30 mg/kg, ip measured at 0.5 hr by rotorod test. To be noted: in vivo. The class given is toxicity, organism-based. Also on record: dose 30 mg/kg, route intraperitoneal.
In series [8] the test system is Mus musculus. The series is described as follows: Anticonvulsant activity in Mus musculus CF1 albino (mouse) assessed as protection against maximal electroshock-induced seizures at 30 mg/kg, ip measured at 4 hr. It is filed as functional, organism-based. Also on record: dose 30 mg/kg. A general note: The maximal electroshock test induces tonic seizures with an electrical stimulus.

In series [9] the test system is Mus musculus. The series is described as follows: Anticonvulsant activity in ip dosed Mus musculus CF1 albino (mouse) assessed as protection against electrically-induced seizure measured at 0.25 hr by 6Hz psychomotor seizure test. It is filed as functional.
Series [10] concerns Mus musculus. The series is described as follows: Anticonvulsant activity in Mus musculus CF1 albino (mouse) assessed as protection against subcutaneous metrazol-induced seizures at 100 mg/kg, ip measured at 0.5 hr. The class given is functional, organism-based. Also on record: dose 100 mg/kg.
Series [11] deals with Mus musculus. The series is described as follows: Neurotoxicity in Mus musculus CF1 albino (mouse) assessed as minimal motor impairment at 300 mg/kg, ip measured at 0.5 hr by rotorod test. Also on record: dose 300 mg/kg, route intraperitoneal. The class given is toxicity, organism-based. The note with it: in vivo.
The subject of series [12] is Mus musculus. The series is described as follows: Anticonvulsant activity in Mus musculus CF1 albino (mouse) assessed as protection against subcutaneous metrazol-induced seizures at 30 mg/kg, ip measured at 4 hr. Also on record: dose 30 mg/kg. The class given is functional, organism-based.
For series [13], the system named is Mus musculus. The experiment in a line: Neurotoxicity in Mus musculus CF1 albino (mouse) assessed as minimal motor impairment at 100 mg/kg, ip measured at 4 hr by rotorod test. To be noted: in vivo. It is filed as toxicity, organism-based. Also on record: dose 100 mg/kg, route intraperitoneal.
For series [14], the system named is Mus musculus. The experiment in a line: Anticonvulsant activity in Mus musculus CF1 albino (mouse) assessed as protection against maximal electroshock-induced seizures at 300 mg/kg, ip measured at 0.5 hr. The class given is functional, organism-based. Also on record: dose 300 mg/kg.
Series [15] relates to Mus musculus. The experiment in a line: Anticonvulsant activity in Mus musculus CF1 albino (mouse) assessed as protection against subcutaneous metrazol-induced seizures at 30 mg/kg, ip measured at 0.5 hr. It is filed as functional, organism-based. Also on record: dose 30 mg/kg.
The nature of series [16]: Neurotoxicity in ip dosed Mus musculus CF1 albino (mouse) assessed as minimal motor impairment measured at 0.25 hr by rotorod test. It is filed as toxicity, organism-based. To be noted: in vivo.
Series [17] has as its system Mus musculus. The series is described as follows: Anticonvulsant activity in Mus musculus CF1 albino (mouse) assessed as protection against subcutaneous metrazol-induced seizures at 300 mg/kg, ip measured at 0.5 hr. Also on record: dose 300 mg/kg. The class given is functional, organism-based.
Series [18] concerns Mus musculus. The experiment in a line: Anticonvulsant activity in Mus musculus CF1 albino (mouse) assessed as protection against maximal electroshock-induced seizures at 100 mg/kg, ip measured at 4 hr. It is filed as functional, organism-based. Also on record: dose 100 mg/kg.
The subject of series [19] is Mus musculus. The experiment in a line: Anticonvulsant activity in Mus musculus CF1 albino (mouse) assessed as protection against maximal electroshock-induced seizures at 30 mg/kg, ip measured at 0.5 hr. The class given is functional, organism-based. Also on record: dose 30 mg/kg.
For series [20], the system named is Mus musculus. The experiment in a line: Anticonvulsant activity in Mus musculus CF1 albino (mouse) assessed as protection against maximal electroshock-induced seizures at 300 mg/kg, ip measured at 4 hr. It is filed as functional, organism-based. Also on record: dose 300 mg/kg.
The test system of series [21] is Mus musculus. The experiment in a line: Anticonvulsant activity in Mus musculus CF1 albino (mouse) assessed as protection against electrically-induced seizure at 100 mg/kg, ip measured at 4 hr by 6Hz psychomotor seizure test. The class given is functional, organism-based. Also on record: dose 100 mg/kg.
Series [22] has as its system Mus musculus. The series is described as follows: Anticonvulsant activity in ip dosed Mus musculus CF1 albino (mouse) assessed as protection against maximal electroshock-induced seizures measured at 0.25 hr. It is filed as functional.
Series [23] concerns Mus musculus. The series is described as follows: Anticonvulsant activity in Mus musculus CF1 albino (mouse) assessed as protection against electrically-induced seizure at 100 mg/kg, ip measured at 0.5 hr by 6Hz psychomotor seizure test. The class given is functional, organism-based. Also on record: dose 100 mg/kg.
Series [24] has as its system Mus musculus. The experiment in a line: Anticonvulsant activity in Mus musculus CF1 albino (mouse) assessed as protection against maximal electroshock-induced seizures at 100 mg/kg, ip measured at 0.5 hr. The class given is functional, organism-based. Also on record: dose 100 mg/kg.
Series [25] has as its system Mus musculus. The series is described as follows: Anticonvulsant activity in Mus musculus CF1 albino (mouse) assessed as protection against electrically-induced seizure at 100 mg/kg, ip measured at 1 hr by 6Hz psychomotor seizure test. Also on record: dose 100 mg/kg. The class given is functional, organism-based.
In series [26] the test system is Mus musculus. The experiment in a line: Anticonvulsant activity in Mus musculus CF1 albino (mouse) assessed as protection against electrically-induced seizure at 100 mg/kg, ip measured at 0.25 hr by 6Hz psychomotor seizure test. It is filed as functional, organism-based. Also on record: dose 100 mg/kg.
In series [27] the test system is Mus musculus. The experiment in a line: Anticonvulsant activity in Mus musculus CF1 albino (mouse) assessed as protection against electrically-induced seizure at 100 mg/kg, ip measured at 2 hr by 6Hz psychomotor seizure test. The class given is functional, organism-based. Also on record: dose 100 mg/kg.
Series [28] has as its system Mus musculus. The experiment in a line: Anticonvulsant activity in ip dosed Mus musculus CF1 albino (mouse) assessed as protection against subcutaneous metrazol-induced seizures measured at 0.25 hr. The class given is functional.

By ED50 is commonly meant the midpoint of the dose-response relation. By TD50 is commonly meant the dose at which the toxic effect under study appears in half of the subjects. With `Cc1ccc(-c2nc(-c3ccccc3)c[nH]2)cc1`, the Activity result with Mus musculus [1], in the series with Mus musculus [2], with Mus musculus [3], in the series on Mus musculus [7], in the series on Mus musculus [11] and in the series with Mus musculus [13] was “Non-toxic” throughout. The selectivity ratio in [4] came out at 3. Besides, the result with Mus musculus [5], with Mus musculus [6], in the series with Mus musculus [8], with Mus musculus [10], with Mus musculus [12] and in the series on Mus musculus [15] was inactive. Further, the outcome in the series with Mus musculus [17], in the series on Mus musculus [18], in the series with Mus musculus [19] and with Mus musculus [21] was inactive. Also, the ED50 with Mus musculus [9] was determined as 62.4 mg/kg. In addition, the result in the series with Mus musculus [14] and with Mus musculus [20] was Active. In addition, the TD50 at 0.25 h in series [16] is 188 mg/kg.
Take `c1ccc(-c2c[nH]c(-c3ccccc3)n2)cc1`: the figures for the ED50 with Mus musculus [22], in the series with Mus musculus [9] and with Mus musculus [28] were 61.7 mg/kg, 47.2 mg/kg and 161 mg/kg, respectively. Also, the Activity entry is recorded as “Non-toxic” in the series with Mus musculus [3], “Non-toxic” in the series with Mus musculus [7], “Toxic” in the series with Mus musculus [11] and “Non-toxic” with Mus musculus [13]. The outcome in the series on Mus musculus [23], in the series with Mus musculus [24], in the series on Mus musculus [25], in the series on Mus musculus [26], with Mus musculus [14] and with Mus musculus [19] was Active. For the same compound, the outcome with Mus musculus [20] was Active. The outcome in the series on Mus musculus [27], in the series on Mus musculus [5], in the series on Mus musculus [6], with Mus musculus [8], in the series with Mus musculus [10] and in the series with Mus musculus [12] was inactive. The result with Mus musculus [15], with Mus musculus [17], in the series with Mus musculus [18] and in the series on Mus musculus [21] was inactive.
As to `FC(F)(F)Oc1ccc(-c2nc(-c3ccccc3)c[nH]2)cc1`, the Activity result in the series on Mus musculus [1] was “Non-toxic”; in the series on Mus musculus [2], “Non-toxic”; with Mus musculus [3], “Non-toxic”; in the series on Mus musculus [7], “Non-toxic”; in the series on Mus musculus [11], “Toxic”; in the series on Mus musculus [13], “Non-toxic”. In addition, the outcome with Mus musculus [23], in the series on Mus musculus [25], with Mus musculus [26], in the series with Mus musculus [14], with Mus musculus [17] and in the series on Mus musculus [20] was Active. In addition, the result with Mus musculus [24], in the series with Mus musculus [5], in the series with Mus musculus [6], in the series on Mus musculus [8], in the series with Mus musculus [10] and in the series on Mus musculus [12] was inactive. The result with Mus musculus [15] and in the series on Mus musculus [19] was inactive. Further, the selectivity ratio in series [4] amounted to 4.8. Moreover, the ED50 with Mus musculus [9] amounted to 28.2 mg/kg. Also, the TD50 at 0.25 h in [16] came out at 136 mg/kg.
